The values that follow come from patent US8791132B2, “Compounds and methods for treatment of hypertension” (Medivation Technologies, Inc., priority 2011, dated 2014).

Each structure is given as a SMILES string. Where “and” joins values, the source holds several entries; their conditions need not be identical. Identical values can stand only once. Like-named read-outs stand apart in the source and are kept apart here.

Assay [1] deals with T1, rat adrenergic α1B receptor (Rattus norvegicus, UniProt P15823).
T1 construct: rat adrenergic α1B receptor obtained from Wistar Rat liver; from tissue; host or cells: Wistar rat liver
T1 sequence (P15823 1-515): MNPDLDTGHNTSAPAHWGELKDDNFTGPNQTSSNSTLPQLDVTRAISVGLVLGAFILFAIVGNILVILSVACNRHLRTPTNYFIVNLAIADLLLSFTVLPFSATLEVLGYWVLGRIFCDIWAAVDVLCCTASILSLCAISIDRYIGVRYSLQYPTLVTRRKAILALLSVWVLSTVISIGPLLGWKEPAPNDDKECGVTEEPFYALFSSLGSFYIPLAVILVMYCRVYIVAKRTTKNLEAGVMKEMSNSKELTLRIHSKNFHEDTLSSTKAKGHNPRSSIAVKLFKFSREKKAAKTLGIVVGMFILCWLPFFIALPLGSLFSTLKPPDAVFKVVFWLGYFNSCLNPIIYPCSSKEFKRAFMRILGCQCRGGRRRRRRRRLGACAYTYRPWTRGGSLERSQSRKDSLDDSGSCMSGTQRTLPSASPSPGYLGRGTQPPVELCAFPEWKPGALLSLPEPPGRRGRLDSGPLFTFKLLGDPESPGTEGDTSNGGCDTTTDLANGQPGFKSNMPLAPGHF
The assay can be described thus: Radioligand binding, adrenergic α1B ([3H]Prazosin). The settings on record: [3H]Prazosin. Put shortly:
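Specific binding, taken as total minus that remaining with 10 μM phentolamine, is measured after filtration and counting. Rat liver receptor preparation and 0.25 nM [3H]prazosin are incubated with compound in 50 mM Tris-HCl (pH 7.4, 0.5 mM EDTA) at 25° C for 60 min. Activity is reported as percent inhibition.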

For assay [2], the target named is T2, human recombinant adrenergic α2B receptor (Homo sapiens, UniProt P18089).
T2 construct: expressed in transfected cells; host or cells: CHO-K1
T2 sequence (P18089 1-450): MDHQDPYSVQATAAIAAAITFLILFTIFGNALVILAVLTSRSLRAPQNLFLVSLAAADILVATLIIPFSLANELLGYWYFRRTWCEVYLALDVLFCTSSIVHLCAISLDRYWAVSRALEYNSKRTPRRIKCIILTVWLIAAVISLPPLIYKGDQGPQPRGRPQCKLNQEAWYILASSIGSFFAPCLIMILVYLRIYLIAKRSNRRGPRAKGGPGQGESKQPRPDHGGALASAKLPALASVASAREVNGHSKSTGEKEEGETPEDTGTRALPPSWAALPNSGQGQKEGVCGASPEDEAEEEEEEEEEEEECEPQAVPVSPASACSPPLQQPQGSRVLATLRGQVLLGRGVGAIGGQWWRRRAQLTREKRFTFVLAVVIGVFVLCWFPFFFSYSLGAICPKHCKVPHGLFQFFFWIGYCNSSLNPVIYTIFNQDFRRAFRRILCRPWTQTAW
The assay can be described thus: Radioligand binding, adrenergic α2B ([3H]Rauwolscine). Put shortly: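 Assay used CHO-K1-expressed human α2B receptor in Tris-HCl pH 7.4 buffer with MgCl2, EDTA and BSA; 60 min incubation at 25 °C.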

Assay [3] concerns the target T3, human recombinant adrenergic α2A receptor (Homo sapiens, UniProt P08913).
T3 construct: expressed in transfected cells; host or cells: insect Sf9 cells
T3 sequence (P08913 1-465): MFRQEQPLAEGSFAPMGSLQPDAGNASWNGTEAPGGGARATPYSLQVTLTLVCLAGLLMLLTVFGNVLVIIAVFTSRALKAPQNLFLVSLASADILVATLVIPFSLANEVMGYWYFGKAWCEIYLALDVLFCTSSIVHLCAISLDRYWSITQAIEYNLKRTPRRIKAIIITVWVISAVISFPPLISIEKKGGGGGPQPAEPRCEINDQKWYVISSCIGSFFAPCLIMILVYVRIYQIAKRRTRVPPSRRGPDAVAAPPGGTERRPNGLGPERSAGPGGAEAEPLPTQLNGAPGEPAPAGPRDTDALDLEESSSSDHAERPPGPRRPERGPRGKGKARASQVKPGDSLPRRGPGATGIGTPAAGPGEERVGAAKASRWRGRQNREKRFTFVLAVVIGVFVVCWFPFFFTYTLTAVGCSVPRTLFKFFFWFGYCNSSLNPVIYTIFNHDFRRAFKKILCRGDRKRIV
The assay can be described thus: Radioligand binding, adrenergic α2A ([3H]MK-912). The settings on record: [3H]MK-912. The procedure, abridged: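 Displacement of 1 nM [3H]MK-912 from receptor produced in insect Sf9 cells was measured after 60 min at 25 °C. Readout: percent inhibition of specific binding.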

Assay [4] addresses T4, human recombinant adrenergic α1D receptor (Homo sapiens, UniProt P25100).
T4 construct: expressed in transfected cells; host or cells: HEK-293
T4 sequence (P25100 1-572): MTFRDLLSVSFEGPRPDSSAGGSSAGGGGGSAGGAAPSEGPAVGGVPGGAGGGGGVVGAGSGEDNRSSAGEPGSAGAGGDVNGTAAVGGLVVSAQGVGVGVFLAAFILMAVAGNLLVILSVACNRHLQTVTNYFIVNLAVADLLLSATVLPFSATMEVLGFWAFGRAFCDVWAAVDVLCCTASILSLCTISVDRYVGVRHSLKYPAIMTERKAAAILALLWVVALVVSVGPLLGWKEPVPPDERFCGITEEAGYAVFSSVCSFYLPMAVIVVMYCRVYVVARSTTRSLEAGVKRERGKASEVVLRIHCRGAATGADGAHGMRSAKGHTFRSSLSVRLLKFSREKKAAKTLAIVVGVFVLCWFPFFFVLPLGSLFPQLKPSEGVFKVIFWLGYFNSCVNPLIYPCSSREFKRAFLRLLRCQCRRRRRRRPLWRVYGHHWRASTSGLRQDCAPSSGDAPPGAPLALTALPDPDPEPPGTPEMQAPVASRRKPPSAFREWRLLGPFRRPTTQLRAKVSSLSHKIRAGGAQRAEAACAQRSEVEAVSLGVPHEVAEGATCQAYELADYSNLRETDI
The assay can be described thus: Radioligand binding, adrenergic α1D ([3H]Prazosin). The conditions noted are these: [3H]Prazosin. As for the experimental part:
Compounds were incubated with 0.6 nM [3H]Prazosin for 60 min at 25° C. Non-specific binding was estimated in the presence of 10 μM phentolamine. Receptor proteins were filtered and washed, the filters were then counted to determine [3H]Prazosin specifically bound. […] Biochemical assay results are presented as the percent inhibition of specific binding in Table B1.

Setting [5] is: compound at 0.1 μM, repeat assays, each datapoint shown, read-out: Percentage inhibition of ligand binding, Adrenergic α1B.
The mark [6] stands for this setting: compound at 0.1 μM, [3H]Rauwolscine, repeat assays, each datapoint shown, read-out: Percentage inhibition of ligand binding, Adrenergic α2B.
Setting [7] is: compound at 0.1 μM, repeat assays, each datapoint shown, read-out: Percentage inhibition of ligand binding, Adrenergic α2A.
The mark [8] stands for this setting: compound at 0.1 μM, repeat assays, each datapoint shown, read-out: Percentage inhibition of ligand binding, Adrenergic α1D.
Setting [9] is: compound at 0.1 μM, repeat assays, each datapoint shown, 0.1 µM.
Where [10] appears, read: read-out: Percentage inhibition of ligand binding, Adrenergic α1B (0.1 μM), compound at 0.1 μM, repeat datapoints each shown.
Setting [11] is: read-out: Percentage inhibition of ligand binding, Adrenergic α2B (0.1 μM), compound at 0.1 μM, [3H]Rauwolscine, repeat datapoints each shown.
[12] abbreviates: read-out: Percentage inhibition of ligand binding, Adrenergic α2A (0.1 μM), compound at 0.1 μM, repeat datapoints each shown.
Setting [13] is: read-out: Percentage inhibition of ligand binding, Adrenergic α1D (0.1 μM), compound at 0.1 μM, repeat datapoints each shown.
Setting [14] is: compound at 0.1 μM, repeat datapoints each shown, 0.1 µM.

What is called inhibition is the relative decrease from the control value, in per cent. For `Cc1ccc2c(c1)c1c(n2CCc2ccccn2)CCN(C)C1` [compound 84], the inhibition at 0.1 µM in assay [1] (setting [5]) was 69%; in assay [2] (setting [6]), 84%; in assay [3] (setting [7]), 27%; in assay [4] (setting [8]), 36%.

In the case of `Cc1ccc2c(c1)c1c(n2CCc2ccc(C(F)(F)F)nc2)CCN(C)C1` [compound 86], the inhibition at 0.1 µM amounted to 62% in assay [1] (setting [5]), 77% in assay [2] (setting [6]), 27% in assay [3] (setting [7]) and 62% in assay [4] (setting [8]).

For the molecule `CN1CCc2c(c3cc(Cl)ccc3n2CCC(=O)OCC2CCCCC2)C1` [compound 87], the inhibition at 0.1 µM in assay [1] (setting [5]) was 5%; in assay [2] (setting [6]) it was 66%; in assay [3] (setting [7]) it was 14%; in assay [4] (setting [8]) it was 24%.

Take `CN1CCc2c(c3cc(Cl)ccc3n2CCC(=O)OC2CCCC2)C1` [compound 88]: the inhibition at 0.1 µM in assay [1] (setting [5]) was 10%; in assay [2] (setting [6]), 90%; in assay [3] (setting [7]), 2%; in assay [4] (setting [8]), 36%.

The Ki is a measure of affinity in units of concentration, obtained from inhibition or displacement. Regarding `CCc1ccc(CCn2c3c(c4cc(C)ccc42)CN(C)CC3)cn1` [compound 89], the inhibition at 0.1 µM in assay [1] (setting [5]) amounted to 79%; in assay [3] (setting [7]), 23%; in assay [4] (setting [8]), 68%. Further, the inhibition at 0.03 µM in assay [2] (compound at 0.03 μM, [3H]Rauwolscine, repeat assays, each datapoint shown, read-out: Percentage inhibition of ligand binding, Adrenergic α2B) was determined as 25%. Moreover, the “Percentage inhibition of ligand binding, Adrenergic α2B” value in assay [2] (compound at 0.1 μM, [3H]Rauwolscine, repeat assays, each datapoint shown, 0.1 µM) was 57% and 79%. Besides, the inhibition constant Ki in assay [2] (read-out: Ki α2B) was found to be 32 nM.

Regarding `Cc1ccc2c(c1)c1c(n2CC(C)(O)c2ccc(F)cc2)CCN(C)C1` (stereo not shown) [compound 90], the “Percentage inhibition of ligand binding, Adrenergic α1B” value in assay [1] (setting [9]) was determined as 57%. Besides, the inhibition at 0.1 µM in assay [2] (setting [6]) is 91%; in assay [4] (setting [8]), 20%. The “Percentage inhibition of ligand binding, Adrenergic α2A” value in assay [3] (setting [9]) came out at 22%.

Turning to `Cc1ccc2c(c1)c1c(n2CCc2cncc(Cl)c2)CCN(C)CC1` [compound 92], the inhibition at 0.1 µM in assay [1] (setting [10]) was found to be 77%; in assay [2] (setting [11]) it was 77%; in assay [3] (setting [12]) it was 30%; in assay [4] (setting [13]) it was 46%.

With `Cc1ccc(C(C)(O)Cn2c3c(c4cc(Cl)ccc42)CN(C)CC3)cn1` (stereo not shown) [compound 93], the “Percentage inhibition of ligand binding, Adrenergic α1B (0.1 μM)” value in assay [1] (setting [14]) came to 25%. In addition, the inhibition at 0.1 µM in assay [2] (setting [11]) turned out to be 87%; in assay [4] (setting [13]), 6%. The “Percentage inhibition of ligand binding, Adrenergic α2A (0.1 μM)” value in assay [3] (setting [14]) amounted to 21%.

As for `Cc1ccc2c(c1)c1c(n2CC(=O)c2ccc(F)cc2)CCN(C)C1` [compound 94], the inhibition at 0.1 µM in assay [1] (setting [10]) is 40%; in assay [2] (setting [11]) it was 66%; in assay [3] (setting [12]), 11%; in assay [4] (setting [13]), 10%.

For `Cc1ccc(C#Cn2c3c(c4cc(Cl)ccc42)C2CCC(C3)N2C)cn1` (stereo not shown) [compound 95], the inhibition at 0.1 µM came to 52% in assay [1] (setting [10]), 105% in assay [2] (setting [11]), 9% in assay [3] (setting [12]) and 29% in assay [4] (setting [13]).

For `C/C(=C\n1c2c(c3cc(C)ccc31)CCN(C)C2C)c1ccccc1F` (stereo not shown) [compound 96], the inhibition at 0.1 µM in assay [1] (setting [10]) came out at 25%; in assay [2] (setting [11]), 71%; in assay [3] (setting [12]), 29%; in assay [4] (setting [13]), 3%.

Take `C/C(=C\n1c2c(c3cc(Cl)ccc31)C1CCC(C2)N1C)c1cccnc1` (stereo not shown) [compound 97]: the inhibition at 0.1 µM in assay [1] (setting [10]) is 3%; in assay [2] (setting [11]), 88%; in assay [3] (setting [12]), -12%; in assay [4] (setting [13]) it was -7%.

Regarding `C/C(=C\n1c2c(c3cc(C)ccc31)CCN(C)CC2)c1ccncc1` [compound 99], the inhibition at 0.1 µM in assay [1] (setting [10]) stood at 69%; in assay [2] (setting [11]), 85%; in assay [3] (setting [12]) it was 29%; in assay [4] (setting [13]), 34%.

As to `COc1ccc2c(c1)c1c(n2/C=C(/C)c2ccncc2)CCN(C)C1` [compound 100], the inhibition at 0.1 µM in assay [1] (setting [10]) amounted to 73%; in assay [2] (setting [11]) it was 72%; in assay [3] (setting [12]) it was 20%; in assay [4] (setting [13]), 47%.

`Cc1ccc2c(c1)c1c(n2CC(C)(F)c2ccncc2)CCN(C)C1` (stereo not shown) [compound 102]: the inhibition at 0.1 µM in assay [1] (setting [10]) came to 40%; in assay [2] (setting [11]) it was 77%; in assay [3] (setting [12]) it was 21%; in assay [4] (setting [13]) it was 21%.

Take `C/C(=C\n1c2c(c3cc(C)ccc31)CNCC2)c1ccncc1` [compound 103]: the inhibition at 0.1 µM in assay [1] (setting [10]) was 49%; in assay [2] (setting [11]) it was 80%; in assay [3] (setting [12]), 19%; in assay [4] (setting [13]) it was 20%.

On to `Cc1ccc2c(c1)c1c(n2/C=C(\F)c2ccncc2)CCN(C)C1` [compound 105], for which the inhibition at 0.1 µM was determined as 57% in assay [1] (setting [10]), 68% in assay [2] (setting [11]), 14% in assay [3] (setting [12]) and 36% in assay [4] (setting [13]).
